Laboratory results: US20230146870A1, “METHOD TO QUANTIFY AFFINITY AND SELECTIVITY OF SMALL MOLECULES FOR PROTEINS IN LIVING CELLS” (Ohio State Innovation Foundation, priority 2021, published 2023)

Assays:
[1] = molecular target: mouse PKCγ-mVenus (Mus musculus, UniProt P63318); experiment: Fluorescent cellular competition assay with probe 47, PKCγ-mVenus; assay type: binding; parameters: eight plasmids encoding full length mouse PKC isozymes fused to; expressed in transfected cells; host or cells: HEK293
Description: (§1) Labeled compounds (tracers) can be used to measure dissociation constants (Kd) and evaluate how tightly different compounds bind to a target protein. However, labeled ligands are not always readily accessible and labels such as fluorophores on small molecules can affect affinities compared to unlabeled compounds. As an alternative, competitive binding assays are widely used to quantify the affinity of small molecules for target proteins. This approach can measure binding by varying the concentration of an unlabeled ligand in the presence of a fixed concentration of a tracer of interest (FIG. 24). The feasibility of this approach for quantification of cellular Ki values using probe 47 was validated with PMA as shown in Table 1.
(§2) HEK293 cells were transfected with different plasmids encoding fluorescent PKC isoforms.

[2] = molecular target: T1, mouse PKCε-mVenus (Mus musculus, UniProt P16054); experiment: Fluorescent cellular competition assay with probe 47, PKCε-mVenus; assay type: binding; parameters: eight plasmids encoding full length mouse PKC isozymes fused to; expressed in transfected cells; host or cells: HEK293
T1 sequence (P16054 1-737): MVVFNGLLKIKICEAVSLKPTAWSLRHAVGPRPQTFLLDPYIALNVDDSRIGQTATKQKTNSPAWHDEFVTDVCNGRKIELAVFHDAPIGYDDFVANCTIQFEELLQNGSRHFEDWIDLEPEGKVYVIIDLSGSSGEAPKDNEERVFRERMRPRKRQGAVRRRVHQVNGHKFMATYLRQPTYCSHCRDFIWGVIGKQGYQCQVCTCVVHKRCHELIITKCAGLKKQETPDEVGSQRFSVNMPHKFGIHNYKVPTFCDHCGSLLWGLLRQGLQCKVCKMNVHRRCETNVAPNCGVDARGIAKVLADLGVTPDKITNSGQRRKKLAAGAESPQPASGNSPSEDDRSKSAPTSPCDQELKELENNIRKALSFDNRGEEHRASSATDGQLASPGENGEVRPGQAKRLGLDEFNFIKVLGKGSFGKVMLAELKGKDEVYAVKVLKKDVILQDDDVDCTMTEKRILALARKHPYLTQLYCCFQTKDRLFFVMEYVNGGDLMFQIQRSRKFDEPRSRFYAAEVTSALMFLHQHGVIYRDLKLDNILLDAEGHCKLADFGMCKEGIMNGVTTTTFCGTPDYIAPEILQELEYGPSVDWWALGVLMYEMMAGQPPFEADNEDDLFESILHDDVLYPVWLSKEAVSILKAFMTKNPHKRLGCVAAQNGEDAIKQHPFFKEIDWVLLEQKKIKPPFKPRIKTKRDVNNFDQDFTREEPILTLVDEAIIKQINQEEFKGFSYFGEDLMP
Description: as §1, §2

[3] = molecular target: mouse PKCδ-mVenus (Mus musculus, UniProt P28867); experiment: Fluorescent cellular competition assay with probe 47, PKCδ-mVenus; assay type: binding; parameters: eight plasmids encoding full length mouse PKC isozymes fused to; expressed in transfected cells; host or cells: HEK293
Description: as §1, §2

[4] = molecular target: mouse PKCη-mVenus (Mus musculus, UniProt P23298); experiment: Fluorescent cellular competition assay with probe 47, PKCη-mVenus; assay type: binding; parameters: eight plasmids encoding full length mouse PKC isozymes fused to; expressed in transfected cells; host or cells: HEK293
Description: as §1, §2

[5] = molecular target: mouse PKCα-mVenus (Mus musculus, UniProt P20444); experiment: Fluorescent cellular competition assay with probe 47, PKCα-mVenus; assay type: binding; parameters: eight plasmids encoding full length mouse PKC isozymes fused to; expressed in transfected cells; host or cells: HEK293
Description: as §1, §2

[6] = molecular target: mouse PKCθ-mVenus (Mus musculus, UniProt Q02111); experiment: Fluorescent cellular competition assay with probe 47, PKCθ-mVenus; assay type: binding; parameters: eight plasmids encoding full length mouse PKC isozymes fused to; expressed in transfected cells; host or cells: HEK293 (transient)
Description: as §1, §2

[7] = molecular target: T2, mouse PKCβI-mVenus (Mus musculus, UniProt P68404); experiment: Fluorescent cellular competition assay with probe 47, PKCβI-mVenus; assay type: binding
T2 construct: eight plasmids encoding full length mouse PKC isozymes fused to; expressed in transfected cells; host or cells: HEK293
Description: as §1, §2

[8] = test system: cellular microtubules (HeLa cells); experiment: Pilot screen of NCI Diversity Set VI: inhibition of binding of PB-GABA-Taxol, with dose-response validation; details: 25 μM, 3 h, normalized to DMSO (0%) and paclitaxel 10 μM (100%)
[9] = test system: microtubules (taxane binding site) in living HeLa cells; experiment: Competition binding assay with PB-GABA-Taxol in living HeLa cells (cellular Ki); details: read-out: cellular Ki; PB-GABA-Taxol 1.5 μM, verapamil 100 μM, 37° C., 4% FBS, 3 h
Protocol: In this assay the cellular Kd was measured by varying the concentration of the fluorescent probe added to cells at equilibrium as established by kinetic assays of probe uptake. Total binding of this probe to specific and non-specific sites in cells in the presence of the efflux inhibitor verapamil was determined by flow cytometry. Non-specific binding was quantified separately by addition of excess paclitaxel with the probe under the same conditions. Subtraction of the linear non-specific binding contribution from the total binding curve was used analyze specific binding of the probe to tubulin of microtubules. Measurement of this cellular dissociation constant under equilibrium conditions further allowed conversion of the half-maximal inhibitory concentration (IC50) of unlabeled compounds into cellular inhibitory constants using an adaptation of the Cheng-Prusoff equation^44 for competitive modulators (Ki) or the allosteric equation^45 for non-competitive modulators (Kb and the cooperativity factor α) as implemented by GraphPad Prism.

[10] = molecular target: crosslinked / purified microtubules; details: previously reported, cited from earlier work; for Kd: read-out: biochemical Kd for microtubules; for Ki: read-out: biochemical Ki for microtubules
[11] = test system: microtubules in living HeLa cells; experiment: Allosteric modulator assay with PB-GABA-Taxol in living HeLa cells (cellular Kb, α); details: PB-GABA-Taxol 1.5 μM, verapamil 100 μM, 3 h, 37° C.; for Kb: read-out: cellular Kb (allosteric modulator)
Description: In this model, two compounds that engage tubulin at different binding sites influence the binding of each other through cooperativity. […] Smaller cooperativity factors (α) represent stronger effects on binding of the orthosteric probe. For these allosteric modulators, the apparent cellular affinity was defined as Kb, and the mathematical relationship between Kb and α is provided (equation 3).
The experimental method for allosteric binding assays was identical to the competition binding assays described previously. However, because it is inaccurate to describe an allosteric modulator with a competitive inhibitory constant (Ki), we used an allosteric modulator model (Kb) for data analysis. […] The observed occupancy of the orthosteric ligand is defined as KApp and is determined by the equilibrium dissociation constant of the orthosteric ligand (Kd), the concentration of allosteric ligand, its affinity for the receptor (Kb), and the strength by which the allosteric ligand affects receptor binding to the orthosteric ligand as defined by the cooperativity factor (a).

[12] = molecular target: T2, mouse PKCβI-mVenus; experiment: Apparent cellular Kd by flow cytometry, HEK293 cells overexpressing PKCβI-mVenus (Example 2); assay type: binding
Protocol: The apparent Kd values of these fluorescent probes were measured using different PKC isozymes (e.g., PKCβI, FIGS. 20A-20D). HEK293 cells were transfected to overexpress PKCβ-mVenus and treated with probes in the presence of verapamil (100 μM) as an inhibitor of efflux.

[13] = molecular target: T3, C1A-C1A-EYFP (PKCγ) (UniProt P63319); experiment: Cellular binding by flow cytometry, HEK293 cells expressing C1A-C1A-EYFP (PKCγ)
T3 construct: apparent Kd; other: verapamil 100 μM, 90 min, 37° C., DMEM high glucose, 4% FBS; half time (t1/2) of cellular fluorescence; other: 33 at 5 μM, verapamil 100 μM, room temperature; fused on or other part: EYFP at the C-terminus; the C1A module is present twice in one chain
Description: The dissociation constant can be defined as the ratio of koff divided by kon. This value is also the concentration where the ligand occupies 50% of the receptor.^94 Kd is only meaningful when equilibrium is reached, where the ligand-receptor complex is formed at the same rate as it dissociates into free ligand and receptor (FIG. 15). This binding equilibrium is established when essentially no further change in the amount of bound complex is observed over time. To evaluate the time needed for equilibration, we treated HEK293 cells that overexpress C1A-C1A-EYFP (PKCγ) with 33 (0 and 5 μM) in the presence or absence of verapamil (100 μM) and cellular fluorescence was measured by flow cytometry as a function of time (FIG. 18A). […] This optimization was used to establish a 90 min equilibration period for further assay optimization.
The presence of fetal bovine serum (FBS) in the culture media also influenced the binding by sequestering the free ligand. The assay conditions were finalized using HEK293 cells incubated with the probe in the presence of verapamil for 90 min at 37° C. in DMEM media (high glucose, 4% FBS).

T2 sequence (P68404 whole entry, the tested form may be a part): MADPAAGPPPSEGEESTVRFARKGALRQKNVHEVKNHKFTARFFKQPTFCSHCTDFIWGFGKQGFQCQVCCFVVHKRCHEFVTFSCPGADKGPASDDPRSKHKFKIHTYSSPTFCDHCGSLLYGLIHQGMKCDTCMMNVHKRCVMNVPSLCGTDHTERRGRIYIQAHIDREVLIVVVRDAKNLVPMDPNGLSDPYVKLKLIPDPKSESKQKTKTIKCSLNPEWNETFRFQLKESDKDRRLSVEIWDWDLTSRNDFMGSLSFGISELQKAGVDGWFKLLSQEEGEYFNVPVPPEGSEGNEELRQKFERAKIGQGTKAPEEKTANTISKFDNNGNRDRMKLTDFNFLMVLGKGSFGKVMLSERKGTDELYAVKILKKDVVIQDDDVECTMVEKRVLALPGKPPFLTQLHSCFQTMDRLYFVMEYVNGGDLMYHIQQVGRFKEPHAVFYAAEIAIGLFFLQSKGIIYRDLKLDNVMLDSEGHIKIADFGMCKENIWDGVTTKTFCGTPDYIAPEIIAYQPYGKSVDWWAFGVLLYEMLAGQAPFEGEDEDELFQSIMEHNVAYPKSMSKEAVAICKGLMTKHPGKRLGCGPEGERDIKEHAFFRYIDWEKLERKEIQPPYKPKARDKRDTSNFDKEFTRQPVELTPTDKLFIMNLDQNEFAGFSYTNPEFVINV
mouse PKCδ-mVenus, sequence (P28867 whole entry, the tested form may be a part): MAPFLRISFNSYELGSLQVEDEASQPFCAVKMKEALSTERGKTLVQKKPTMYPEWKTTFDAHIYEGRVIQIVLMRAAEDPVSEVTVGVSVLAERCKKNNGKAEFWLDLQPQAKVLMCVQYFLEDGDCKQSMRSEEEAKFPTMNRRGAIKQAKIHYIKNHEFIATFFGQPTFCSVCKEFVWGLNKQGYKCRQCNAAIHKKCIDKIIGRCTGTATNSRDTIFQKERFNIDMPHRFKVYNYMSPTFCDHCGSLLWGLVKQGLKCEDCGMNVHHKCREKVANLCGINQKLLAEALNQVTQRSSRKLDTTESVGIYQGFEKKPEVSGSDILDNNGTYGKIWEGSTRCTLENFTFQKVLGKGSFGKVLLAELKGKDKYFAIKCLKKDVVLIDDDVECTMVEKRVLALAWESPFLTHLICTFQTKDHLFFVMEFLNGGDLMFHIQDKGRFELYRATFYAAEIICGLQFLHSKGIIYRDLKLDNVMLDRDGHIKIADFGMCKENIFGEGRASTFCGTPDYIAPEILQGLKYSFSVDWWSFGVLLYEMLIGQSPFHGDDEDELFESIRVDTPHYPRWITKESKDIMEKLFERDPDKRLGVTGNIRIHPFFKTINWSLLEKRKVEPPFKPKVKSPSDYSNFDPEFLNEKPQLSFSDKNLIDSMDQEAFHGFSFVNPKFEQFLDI
mouse PKCη-mVenus, sequence (P23298 whole entry, the tested form may be a part): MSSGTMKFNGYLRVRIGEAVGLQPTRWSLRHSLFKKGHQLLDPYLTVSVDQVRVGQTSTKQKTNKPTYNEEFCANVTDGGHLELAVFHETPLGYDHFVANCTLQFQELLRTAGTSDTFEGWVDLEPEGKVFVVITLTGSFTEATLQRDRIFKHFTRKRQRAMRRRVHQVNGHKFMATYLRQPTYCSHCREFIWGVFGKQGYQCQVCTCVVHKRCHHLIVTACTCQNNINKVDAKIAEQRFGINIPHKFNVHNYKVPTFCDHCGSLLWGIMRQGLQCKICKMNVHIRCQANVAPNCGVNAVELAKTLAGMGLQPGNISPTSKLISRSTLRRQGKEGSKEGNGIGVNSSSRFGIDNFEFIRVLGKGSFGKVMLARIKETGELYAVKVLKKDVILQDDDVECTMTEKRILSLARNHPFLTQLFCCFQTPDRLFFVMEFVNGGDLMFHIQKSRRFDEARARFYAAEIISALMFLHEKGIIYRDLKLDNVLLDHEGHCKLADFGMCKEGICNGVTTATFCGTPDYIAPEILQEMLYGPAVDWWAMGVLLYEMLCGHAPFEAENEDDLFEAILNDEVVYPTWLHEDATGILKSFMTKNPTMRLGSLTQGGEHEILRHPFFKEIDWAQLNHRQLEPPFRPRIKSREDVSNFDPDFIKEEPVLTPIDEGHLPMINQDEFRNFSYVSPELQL
mouse PKCθ-mVenus, sequence (Q02111 whole entry, the tested form may be a part): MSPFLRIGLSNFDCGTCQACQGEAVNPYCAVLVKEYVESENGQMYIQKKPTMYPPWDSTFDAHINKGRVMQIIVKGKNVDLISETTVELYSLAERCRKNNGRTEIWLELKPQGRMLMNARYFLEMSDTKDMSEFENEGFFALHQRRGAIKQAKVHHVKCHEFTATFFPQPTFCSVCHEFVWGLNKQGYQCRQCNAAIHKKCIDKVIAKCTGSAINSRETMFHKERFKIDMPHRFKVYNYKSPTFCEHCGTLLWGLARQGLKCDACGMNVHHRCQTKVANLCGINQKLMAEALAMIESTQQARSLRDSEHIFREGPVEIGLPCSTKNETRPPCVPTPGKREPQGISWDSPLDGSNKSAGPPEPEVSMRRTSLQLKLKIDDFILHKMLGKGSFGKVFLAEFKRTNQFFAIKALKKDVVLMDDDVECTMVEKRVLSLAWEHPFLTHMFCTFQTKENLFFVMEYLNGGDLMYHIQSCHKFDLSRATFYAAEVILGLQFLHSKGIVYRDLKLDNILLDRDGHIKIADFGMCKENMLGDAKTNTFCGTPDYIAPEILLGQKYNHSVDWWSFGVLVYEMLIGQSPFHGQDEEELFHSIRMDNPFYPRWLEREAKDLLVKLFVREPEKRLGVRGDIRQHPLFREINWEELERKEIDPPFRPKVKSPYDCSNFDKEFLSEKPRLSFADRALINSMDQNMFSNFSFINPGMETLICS

SMILES: CCCCCCCCCCCCCC(=O)O[C@@H]1[C@@H](C)[C@@]2(O)[C@@H](C=C(CO)C[C@]3(O)C(=O)C(C)=C[C@@H]23)[C@@H]2C(C)(C)[C@]12OC(C)=O [PMA, 12-O-tetradecanoylphorbol-13-acetate]
- Efficacy, PKCγ ([1]; PMA vs probe 47): 97%
- IC50/Ki, PKCγ ([1]; PMA vs probe 47): 2.4
- IC50 ([1]; probe 47 2.9 μM, verapamil 25 μM, read-out: IC50 (PMA), PKCγ): 12 nM
- Ki ([1]; probe 47 2.9 μM, verapamil 25 μM, read-out: Ki (PMA), PKCγ): 4.9 nM
- Efficacy, PKCε ([2]; PMA vs probe 47): 81%
- IC50/Ki, PKCε ([2]; PMA vs probe 47): 1.4
- IC50 ([2]; probe 47 2.9 μM, verapamil 25 μM, read-out: IC50 (PMA), PKCε): 49 nM
- Ki ([2]; probe 47 2.9 μM, verapamil 25 μM, read-out: Ki (PMA), PKCε): 36 nM
- Efficacy, PKCδ ([3]; PMA vs probe 47): 81%
- IC50/Ki, PKCδ ([3]; PMA vs probe 47): 1.7
- IC50 ([3]; probe 47 5.8 μM, verapamil 25 μM, read-out: IC50 (PMA), PKCδ): 39 nM
- Ki ([3]; probe 47 5.8 μM, verapamil 25 μM, read-out: Ki (PMA), PKCδ): 23 nM
- Efficacy, PKCη ([4]; PMA vs probe 47): 80%
- IC50/Ki, PKCη ([4]; PMA vs probe 47): 1.5
- IC50 ([4]; probe 47 4.3 μM, verapamil 25 μM, read-out: IC50 (PMA), PKCη): 32 nM
- Ki ([4]; probe 47 4.3 μM, verapamil 25 μM, read-out: Ki (PMA), PKCη): 21 nM
- Efficacy, PKCα ([5]; PMA vs probe 47): 95%
- IC50/Ki, PKCα ([5]; PMA vs probe 47): 1.9
- IC50 ([5]; probe 47 1.4 μM, verapamil 25 μM, read-out: IC50 (PMA), PKCα): 14 nM
- Ki ([5]; probe 47 1.4 μM, verapamil 25 μM, read-out: Ki (PMA), PKCα): 7.5 nM
- Efficacy, PKCθ ([6]; PMA vs probe 47): 80%
- IC50/Ki, PKCθ ([6]; PMA vs probe 47): 1.4
- IC50 ([6]; probe 47 4.3 μM, verapamil 25 μM, read-out: IC50 (PMA), PKCθ): 13 nM
- Ki ([6]; probe 47 4.3 μM, verapamil 25 μM, read-out: Ki (PMA), PKCθ): 10 nM
- Efficacy, PKCβI ([7]; PMA vs probe 47): 103%
- IC50/Ki, PKCβI ([7]; PMA vs probe 47): 2.5
- IC50 ([7]; probe 47 1.4 μM, verapamil 25 μM, read-out: IC50 (PMA), PKCβI): 15 nM
- Ki ([7]; probe 47 1.4 μM, verapamil 25 μM, read-out: Ki (PMA), PKCβI): 5.7 nM

SMILES: CC(=O)O[C@H]1C(=O)[C@@]2(C)[C@H]([C@H](OC(=O)c3ccccc3)[C@]3(O)C[C@H](O)C(C)=C1C3(C)C)[C@]1(OC(C)=O)CO[C@@H]1C[C@@H]2O [baccatin III]
- inhibition of binding of PB-GABA-Taxol to cellular microtubules [8]: 28%
- Ki [9]: 17000 ± 3000 nM
- Kd [10]: 6.7 ± 2 µM

SMILES: CO[C@H]1C(=O)[C@]2(C)[C@@H](OC)C[C@H]3OC[C@@]3(OC(C)=O)[C@H]2[C@H](OC(=O)c2ccccc2)[C@]2(O)C[C@H](OC(=O)[C@H](O)[C@@H](NC(=O)OC(C)(C)C)c3ccccc3)C(C)=C1C2(C)C [cabazitaxel]
- Ki [9]: 6 nM
- Ki [10]: 7.4 ± 0.9 nM

SMILES: CC(=O)O[C@@]12CO[C@@H]1C[C@H](O)[C@@]1(C)C(=O)[C@H](O)C3=C(C)[C@@H](OC(=O)[C@H](O)[C@@H](NC(=O)OC(C)(C)C)c4ccccc4)C[C@@](O)([C@@H](OC(=O)c4ccccc4)[C@H]21)C3(C)C [docetaxel]
- Ki [9]: 16 nM
- Ki [10]: 17 ± 6 nM

SMILES: COc1cc2cc(c1Cl)N(C)C(=O)C[C@H](OC(=O)[C@H](C)N(C)C(C)=O)[C@]1(C)O[C@H]1[C@H](C)[C@@H]1C[C@@](O)(NC(=O)O1)[C@H](OC)/C=C/C=C(\C)C2 [maytansine]
- cooperativity factor α [11]: 0.21
- Kb [11]: 3 nM

SMILES: CC1=C[C@H]2[C@@]3(O)[C@H](C)[C@@H](O)[C@]4(OC(=O)N(C)CCCCCCCCN(C)C(=O)c5cc6cc(F)c(O)c(F)c6oc5=O)[C@H]([C@@H]3C=C(CO)C[C@]2(O)C1=O)C4(C)C [probe 32, (1aR,1bS,4aR,7aS,7bS,8R,9R,9aS)-4a,7b,9-trihydroxy-3-(hydroxymethyl)-1,1,6,8-tetramethyl-5-oxo-1,1a,1b,4,4a,5,7a,7b,8,9-decahydro-9aH-cyclopropa[3,4]benzo[1,2-e]azulen-9a-yl (8-(6,8-difluoro-7-hydroxy-N-methyl-2-oxo-2H-chromene-3-carboxamido)octyl)(methyl)carbamate]
- Kd [12]: 63 µM

SMILES: C#CCN(CCCCCCCCCCCCNC(=O)c1cc2cc(F)c(O)c(F)c2oc1=O)C(=O)O[C@@]12[C@H](O)[C@@H](C)[C@@]3(O)[C@@H](C=C(CO)C[C@]4(O)C(=O)C(C)=C[C@@H]34)[C@@H]1C2(C)C [probe 48, (1aR,1bS,4aR,7aS,7bS,8R,9R,9aS)-4a,7b,9-trihydroxy-3-(hydroxymethyl)-1,1,6,8-tetramethyl-5-oxo-1,1a,1b,4,4a,5,7a,7b,8,9-decahydro-9aH-cyclopropa[3,4]benzo[1,2-e]azulen-9a-yl (12-(6,8-difluoro-7-hydroxy-2-oxo-2H-chromene-3-carboxamido)dodecyl)(prop-2-yn-1-yl)carbamate]
- affinity relative to 33 [13]: ~2 fold
- Kd ([13]; verapamil 100 μM, 90 min, 37° C., DMEM high glucose, 4% FBS, read-out: apparent Kd): 2000 nM

SMILES: CC[C@]1(O)C[C@@H]2CN(CCc3c([nH]c4ccccc34)[C@@](C(=O)OC)(c3cc4c(cc3OC)N(C)[C@H]3[C@@](O)(C(=O)OC)[C@H](OC(C)=O)[C@]5(CC)C=CCN6CC[C@]43[C@@H]65)C2)C1 [vinblastine]
- cooperativity factor α [11]: 0.18
- Kb [11]: 7 nM
- Kd [10]: 0.19 to 1 µM
